In patent publication US8192962B2, “Processes for detecting toxic substances” (Daikin Industries, Ltd., priority 2001, dated 2012):

Tested on: Transport facilitation protein genes
Experiment: DNA chip mRNA expression in yeast, transport facilitation protein genes (Table 5)
Assay type: cell-based, Saccharomyces cerevisiae S288C
Method: Yeast (Saccharomyces cerevisiae S288C (α SUC2mal mel gap2 CUP1)) were incubated at 25° C. on YPD medium (yeast extract 1%, polypepton 2%, glucose 2%). One of toxic chemical substances was added to the cells at logarithmic growth phase, and the cells were further incubated for two hours. Cells were cultured without any chemical substance in the same condition, and were used as control. Concentrations of the chemical substances were defined to inhibit the growth of the yeast but not lead to death.
After completion of the incubation, the culture was centrifuged to collect the cells. To the cells, sodium acetate buffer (50 mM sodium acetate, 10 mM EDTA, 1% SDS) was added, and the mixture was shaken at 65° C. for five minutes, followed by returning to room temperature, and obtaining the supernatant, of which the procedures were repeated two times. To the supernatant, ½ amount of a solution of phenol/chloroform was added, and the mixture was centrifuged to give a supernatant, which was added with an equal amount of chloroform, and the mixture was centrifuged to give a supernatant. To the supernatant, an equal amount of isopropanol containing 0.3 M sodium acetate was added, and the mixture was allowed to stand at room temperature for 30 minutes, after which the mixture was centrifuged to give a sediment of the whole RNAs. Seventy % ethanol was added to the sediment, and the mixture was again centrifuged to give a sediment, which was then dried and dissolved in water. mRNA was isolated from the whole RNAs as followings. In view of the fact that a poly A chain is attached to the 3′ terminus of mRNA, a polynucleotide having a poly T structure which was immobilized on the surface of latex beads was used to trap the mRNA, and then the mRNA was washed and eluted with spine column (Oligotex-dT30<Super>mRNA Purification Kit, Takara). Reverse transcription of the mRNA was conducted with a reverse transcriptase (Super Script II Reverse Transcriptase; catalogue No. 18064-014, GibcoBRL) using fluorescence-labeled nucleotides to give cDNAs that were introduced with Cy3-dUTP or Cy5-dUTP during the reverse transcription.
The labeled cDNAs were dissolved in TE buffer (10mM Tris-HCl/1 mM EDTA, pH8.0), and the solution was dropped on the DNA chip containing the whole genes of yeast (DNA Chip Research Inc. Japan) so that the cDNAs were hybridized on the DNA chip at 65° C. for over 12 hours. The fluoresces intensity of the DNA chip was read with a scanner, and the ratio relative to the fluorescence intensity resulting from the absence of chemical substance was estimated as the following, which is shown in Tables 1 to 9: […]

O=[N+]([O-])c1cc[n+]([O-])c2ccccc12 [(5), 4-nitroquinolin-N-oxide]
The level of expressed mRNA in the presence of chemical substance/The level of expressed mRNA in the absence of chemical substance (yeast gene YBL030C): 0.7 | The level of expressed mRNA in the presence of chemical substance/The level of expressed mRNA in the absence of chemical substance (yeast gene YBL099W): 1.0 | The level of expressed mRNA in the presence of chemical substance/The level of expressed mRNA in the absence of chemical substance (yeast gene YBR052C): 1.4 | The level of expressed mRNA in the presence of chemical substance/The level of expressed mRNA in the absence of chemical substance (yeast gene YBR068C): 1.4 | The level of expressed mRNA in the presence of chemical substance/The level of expressed mRNA in the absence of chemical substance (yeast gene YBR127C): 1.4 | The level of expressed mRNA in the presence of chemical substance/The level of expressed mRNA in the absence of chemical substance (yeast gene YBR132C): 0.8 | The level of expressed mRNA in the presence of chemical substance/The level of expressed mRNA in the absence of chemical substance (yeast gene YBR207W): 1.7 | The level of expressed mRNA in the presence of chemical substance/The level of expressed mRNA in the absence of chemical substance (yeast gene YBR293W): 0.8 | The level of expressed mRNA in the presence of chemical substance/The level of expressed mRNA in the absence of chemical substance (yeast gene YBR294W): 1.4 | The level of expressed mRNA in the presence of chemical substance/The level of expressed mRNA in the absence of chemical substance (yeast gene YBR295W): 0.8 | The level of expressed mRNA in the presence of chemical substance/The level of expressed mRNA in the absence of chemical substance (yeast gene YBR298C): 1.4 | The level of expressed mRNA in the presence of chemical substance/The level of expressed mRNA in the absence of chemical substance (yeast gene YCL025C): 0.9 | The level of expressed mRNA in the presence of chemical substance/The level of expressed mRNA in the absence of chemical substance (yeast gene YCL038C): 1.2 | The level of expressed mRNA in the presence of chemical substance/The level of expressed mRNA in the absence of chemical substance (yeast gene YCR024C-A): 0.9 | The level of expressed mRNA in the presence of chemical substance/The level of expressed mRNA in the absence of chemical substance (yeast gene YCR037C): 1.3 | The level of expressed mRNA in the presence of chemical substance/The level of expressed mRNA in the absence of chemical substance (yeast gene YCR098C): 1.4 | The level of expressed mRNA in the presence of chemical substance/The level of expressed mRNA in the absence of chemical substance (yeast gene YDL128W): 1.0 | The level of expressed mRNA in the presence of chemical substance/The level of expressed mRNA in the absence of chemical substance (yeast gene YDL198C): 0.7 | The level of expressed mRNA in the presence of chemical substance/The level of expressed mRNA in the absence of chemical substance (yeast gene YDL210W): 0.9 | The level of expressed mRNA in the presence of chemical substance/The level of expressed mRNA in the absence of chemical substance (yeast gene YDL245C): 1.3 | The level of expressed mRNA in the presence of chemical substance/The level of expressed mRNA in the absence of chemical substance (yeast gene YDR038C): 0.9 | The level of expressed mRNA in the presence of chemical substance/The level of expressed mRNA in the absence of chemical substance (yeast gene YDR039C): 1.3 | The level of expressed mRNA in the presence of chemical substance/The level of expressed mRNA in the absence of chemical substance (yeast gene YDR086C): 1.0 | The level of expressed mRNA in the presence of chemical substance/The level of expressed mRNA in the absence of chemical substance (yeast gene YDR270W): 1.0 | The level of expressed mRNA in the presence of chemical substance/The level of expressed mRNA in the absence of chemical substance (yeast gene YDR298C): 1.3 | The level of expressed mRNA in the presence of chemical substance/The level of expressed mRNA in the absence of chemical substance (yeast gene YDR342C): 1.6 | The level of expressed mRNA in the presence of chemical substance/The level of expressed mRNA in the absence of chemical substance (yeast gene YDR343C): 1.3 | The level of expressed mRNA in the presence of chemical substance/The level of expressed mRNA in the absence of chemical substance (yeast gene YDR345C): 1.3 | The level of expressed mRNA in the presence of chemical substance/The level of expressed mRNA in the absence of chemical substance (yeast gene YDR387C): 0.9 | The level of expressed mRNA in the presence of chemical substance/The level of expressed mRNA in the absence of chemical substance (yeast gene YDR497C): 0.7 | The level of expressed mRNA in the presence of chemical substance/The level of expressed mRNA in the absence of chemical substance (yeast gene YEL027W): 1.0 | The level of expressed mRNA in the presence of chemical substance/The level of expressed mRNA in the absence of chemical substance (yeast gene YEL063C): 1.2 | The level of expressed mRNA in the presence of chemical substance/The level of expressed mRNA in the absence of chemical substance (yeast gene YEL065W): 1.4 | The level of expressed mRNA in the presence of chemical substance/The level of expressed mRNA in the absence of chemical substance (yeast gene YER053C): 0.6 | The level of expressed mRNA in the presence of chemical substance/The level of expressed mRNA in the absence of chemical substance (yeast gene YFL011W): 1.3 | The level of expressed mRNA in the presence of chemical substance/The level of expressed mRNA in the absence of chemical substance (yeast gene YFL041W): 1.2 | The level of expressed mRNA in the presence of chemical substance/The level of expressed mRNA in the absence of chemical substance (yeast gene YFL050C): 1.0 | The level of expressed mRNA in the presence of chemical substance/The level of expressed mRNA in the absence of chemical substance (yeast gene YFL054C): 1.3 | The level of expressed mRNA in the presence of chemical substance/The level of expressed mRNA in the absence of chemical substance (yeast gene YGL006W): 1.0 | The level of expressed mRNA in the presence of chemical substance/The level of expressed mRNA in the absence of chemical substance (yeast gene YGL008C): 0.8 | The level of expressed mRNA in the presence of chemical substance/The level of expressed mRNA in the absence of chemical substance (yeast gene YGL104C): 1.0 | The level of expressed mRNA in the presence of chemical substance/The level of expressed mRNA in the absence of chemical substance (yeast gene YGL167C): 1.2 | The level of expressed mRNA in the presence of chemical substance/The level of expressed mRNA in the absence of chemical substance (yeast gene YGL255W): 1.4 | The level of expressed mRNA in the presence of chemical substance/The level of expressed mRNA in the absence of chemical substance (yeast gene YGR055W): 1.3 | The level of expressed mRNA in the presence of chemical substance/The level of expressed mRNA in the absence of chemical substance (yeast gene YGR065C): 1.2 | The level of expressed mRNA in the presence of chemical substance/The level of expressed mRNA in the absence of chemical substance (yeast gene YGR082W): 0.9 | The level of expressed mRNA in the presence of chemical substance/The level of expressed mRNA in the absence of chemical substance (yeast gene YGR096W): 1.2 | The level of expressed mRNA in the presence of chemical substance/The level of expressed mRNA in the absence of chemical substance (yeast gene YGR138C): 0.8 | The level of expressed mRNA in the presence of chemical substance/The level of expressed mRNA in the absence of chemical substance (yeast gene YGR191W): 0.8 | The level of expressed mRNA in the presence of chemical substance/The level of expressed mRNA in the absence of chemical substance (yeast gene YGR197C): 0.7 | The level of expressed mRNA in the presence of chemical substance/The level of expressed mRNA in the absence of chemical substance (yeast gene YGR224W): 1.4 | The level of expressed mRNA in the presence of chemical substance/The level of expressed mRNA in the absence of chemical substance (yeast gene YGR260W): 0.8
